Calls of active or inactive are those of the source. No cut-off for these calls is given here.
Legend:
Homo sapiens = species on record: Homo sapiens; test: Selectivity ratio of EC50 for human PPARalpha to EC50 for human PPARgamma1
[1] = Clearance in human liver microsomes at 1 umol/L after 20 mins by HPLC analysis; assay type: ADME, Microsome; settings: read-out: CLH
[2] = target: T1, Peroxisome proliferator-activated receptor alpha (Homo sapiens, UniProt Q07869); test: Agonist activity at human PPARalpha expressed in COS-1 cells after 1 day by luciferase reporter gene transactivation assay; assay type: functional, cell-based
T1 sequence (Q07869 whole entry): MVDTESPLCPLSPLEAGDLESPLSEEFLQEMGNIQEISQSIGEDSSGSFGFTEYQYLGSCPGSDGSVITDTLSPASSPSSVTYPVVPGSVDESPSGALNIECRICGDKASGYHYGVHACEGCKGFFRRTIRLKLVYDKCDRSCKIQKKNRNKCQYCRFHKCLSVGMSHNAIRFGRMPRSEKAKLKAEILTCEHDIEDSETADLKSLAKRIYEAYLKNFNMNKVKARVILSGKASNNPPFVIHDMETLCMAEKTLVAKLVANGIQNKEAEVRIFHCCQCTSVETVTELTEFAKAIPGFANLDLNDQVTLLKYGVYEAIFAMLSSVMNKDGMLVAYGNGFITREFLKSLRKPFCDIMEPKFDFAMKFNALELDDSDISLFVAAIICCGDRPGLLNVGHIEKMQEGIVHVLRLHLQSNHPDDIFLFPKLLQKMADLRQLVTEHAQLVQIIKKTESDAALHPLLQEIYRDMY

[3] = target: PPAR delta/gamma (Homo sapiens) (UniProt P37231+Q03181); test: Selectivity ratio of EC50 for human PPARdelta to EC50 for human PPARgamma1
[4] = target: T2, Peroxisome proliferator-activated receptor gamma (Homo sapiens, UniProt P37231); test: Agonist activity at full length human PPARgamma1 transfected in […] cells co expressing RXRalpha and PPRE after 1 day by luciferase reporter gene transactivation assay; assay type: functional, cell-based, CHO-K1
T2 sequence (P37231 whole entry): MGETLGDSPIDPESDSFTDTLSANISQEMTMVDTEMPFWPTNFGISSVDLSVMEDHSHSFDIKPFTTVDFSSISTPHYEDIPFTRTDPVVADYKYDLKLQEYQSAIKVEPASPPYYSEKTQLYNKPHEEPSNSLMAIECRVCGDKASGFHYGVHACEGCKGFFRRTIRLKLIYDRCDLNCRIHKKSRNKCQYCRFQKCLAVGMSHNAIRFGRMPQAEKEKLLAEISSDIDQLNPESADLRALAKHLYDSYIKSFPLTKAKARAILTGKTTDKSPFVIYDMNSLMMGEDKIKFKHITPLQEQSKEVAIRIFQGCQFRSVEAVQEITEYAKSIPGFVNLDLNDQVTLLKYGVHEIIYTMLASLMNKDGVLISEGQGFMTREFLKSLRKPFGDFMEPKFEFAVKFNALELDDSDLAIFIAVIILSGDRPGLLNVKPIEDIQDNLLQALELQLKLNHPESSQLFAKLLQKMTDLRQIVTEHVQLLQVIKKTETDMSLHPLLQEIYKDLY

[5] = target: T3, Peroxisome proliferator-activated receptor delta (Homo sapiens, UniProt Q03181); test: Agonist activity at human PPARdelta expressed in COS-1 cells after 2 days by luciferase reporter gene transactivation assay; assay type: functional, cell-based
T3 sequence (Q03181 whole entry): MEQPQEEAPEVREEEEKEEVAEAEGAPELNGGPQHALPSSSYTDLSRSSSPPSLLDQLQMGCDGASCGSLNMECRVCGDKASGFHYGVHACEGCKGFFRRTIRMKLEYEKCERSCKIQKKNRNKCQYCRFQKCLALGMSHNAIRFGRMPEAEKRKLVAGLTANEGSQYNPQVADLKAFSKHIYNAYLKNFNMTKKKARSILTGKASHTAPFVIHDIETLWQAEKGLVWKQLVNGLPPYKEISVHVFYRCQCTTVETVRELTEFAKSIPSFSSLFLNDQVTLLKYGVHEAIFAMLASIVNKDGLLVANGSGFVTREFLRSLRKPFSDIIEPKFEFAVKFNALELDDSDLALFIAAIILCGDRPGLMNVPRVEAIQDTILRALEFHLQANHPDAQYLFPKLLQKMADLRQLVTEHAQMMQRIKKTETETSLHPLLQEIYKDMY

Rattus norvegicus [6] = test: Antidiabetic activity in po dosed fatty Wister rat assessed as reduction of triglyceride level administered once daily for 7 days; assay type: functional; settings: for ED25: 168 h
[7] = target: T4, Peroxisome proliferator-activated receptor alpha (Homo sapiens) (UniProt Q07869); test: Binding affinity to PPARalpha at 10 uM by competitive binding assay
T4 sequence (whole entry): T1 sequence (Q07869 whole entry)

[8] = target: T2, Peroxisome proliferator-activated receptor gamma; test: Displacement of [3H]-AD-5061 from human GST-tagged PPARgamma
[9] = target: T4, Peroxisome proliferator-activated receptor alpha (Homo sapiens); test: Agonist activity at human PPARalpha expressed in COS-1 cells at 10 uM after 1 day by luciferase reporter gene transactivation assay; assay type: functional, cell-based
[10] = target: T5, Peroxisome proliferator-activated receptor delta (Homo sapiens) (UniProt Q03181); test: Binding affinity to PPARdelta at 10 uM by competitive binding assay
T5 sequence (whole entry): T3 sequence (Q03181 whole entry)

Rattus norvegicus [11] = test: Antidiabetic activity in po dosed fatty Wister rat assessed as reduction of plasma glucose level administered once daily for 7 days; assay type: functional; settings: for ED25: 168 h
[12] = Clearance in rat liver microsomes at 1 umol/L after 20 mins by HPLC analysis; assay type: ADME, Microsome; settings: read-out: CLH

| Structure (SMILES) | Ratio EC50 (Homo sapiens) | microsomal CLint at 1 µM [1] | EC50 [2] | Ratio EC50 [3] | EC50 ([4]; read-out: EC50) | EC50 [5] | other results |
| --- | --- | --- | --- | --- | --- | --- | --- |
| CCCCCS(=O)(=O)NC(=O)CCc1cc(C2CC2)nn1Cc1ccc(C(F)(F)F)cc1Cl | > 500 | 78 µL/min/mg | > 10 µM | > 500 | 13 nM | > 10 µM | – |
| CC(C)CCS(=O)(=O)NC(=O)CCc1cc(OC(C)C)nn1Cc1ccc(Cl)cc1Cl | – | – | > 10 µM | – | 17 nM | > 10 µM | – |
| CC(C)CCS(=O)(=O)NC(=O)/C=C/c1cc(OC(C)C)nn1Cc1ccc(C(F)(F)F)cc1Cl | > 500 | 32 µL/min/mg | > 10 µM | > 500 | – | > 10 µM | Activity (Rattus norvegicus [6]): Dose-dependent effect; ED25 (Rattus norvegicus [6]): 0.09 mg/kg; Activity [7]: inactive; IC50 [8]: 15 nM; Activity [9]: 48%; Activity [10]: inactive; Activity (Rattus norvegicus [11]): Dose-dependent effect; ED25 (Rattus norvegicus [11]): 0.21 mg/kg; microsomal CLint at 1 µM [12]: 51 µL/min/mg |
| CCCCCS(=O)(=O)NC(=O)/C=C/c1cc(C2CC2)nn1Cc1ccc(C(F)(F)F)cc1Cl | > 500 | 54 µL/min/mg | > 10 µM | > 500 | – | > 10 µM | Activity (Rattus norvegicus [6]): Dose-dependent effect; ED25 (Rattus norvegicus [6]): 0.55 mg/kg; Activity [7]: inactive; IC50 [8]: 12 nM; Activity [10]: inactive; Activity (Rattus norvegicus [11]): Dose-dependent effect; ED25 (Rattus norvegicus [11]): 0.42 mg/kg; microsomal CLint at 1 µM [12]: 116 µL/min/mg |
| CCCCCS(=O)(=O)NC(=O)CCc1cc(OC(C)C)nn1Cc1ccc(C(F)(F)F)cc1Cl | > 500 | 163 µL/min/mg | > 10 µM | > 500 | 10 nM | > 10 µM | Activity [7]: inactive; IC50 [8]: 21 nM; Activity [10]: inactive |
| CCCS(=O)(=O)NC(=O)CCc1cc(OC(C)C)nn1Cc1ccc(Cl)cc1Cl | – | – | – | – | 160 nM | – | – |
| CCCCCS(=O)(=O)NC(=O)CCc1cc(C(C)C)nn1Cc1ccc(Cl)cc1Cl | > 500 | 124 µL/min/mg | > 10 µM | > 500 | 13 nM | > 10 µM | – |
| CCCCCS(=O)(=O)NC(=O)CCc1cc(OCCOC)nn1Cc1ccc(Cl)cc1Cl | – | 144 µL/min/mg | > 10 µM | – | 31 nM | > 10 µM | – |
| CCCCCS(=O)(=O)NC(=O)CCc1cc(-c2ccccc2)nn1Cc1ccc(Cl)cc1Cl | – | 111 µL/min/mg | > 10 µM | – | 11 nM | > 10 µM | – |
| CCCCCS(=O)(=O)NC(=O)/C=C/c1cc(OC(C)C)nn1Cc1ccc(Cl)cc1Cl | > 500 | 29 µL/min/mg | > 10 µM | > 500 | – | > 10 µM | – |
| CCCCCS(=O)(=O)NC(=O)/C=C/c1cc(OC(C)C)nn1Cc1ccc(C(F)(F)F)cc1Cl | > 500 | 26 µL/min/mg | > 10 µM | > 500 | – | > 10 µM | Activity (Rattus norvegicus [6]): Dose-dependent effect; ED25 (Rattus norvegicus [6]): 0.04 mg/kg; Activity [7]: inactive; IC50 [8]: 23 nM; Activity [10]: inactive; Activity (Rattus norvegicus [11]): Dose-dependent effect; ED25 (Rattus norvegicus [11]): 0.12 mg/kg; microsomal CLint at 1 µM [12]: 33 µL/min/mg |
| CC(C)Oc1cc(CCC(=O)O)n(Cc2ccc(Cl)cc2Cl)n1 | – | – | – | – | 500 nM | – | – |
| CCCCCS(=O)(=O)NC(=O)CCc1cc(C(C)C)nn1Cc1ccc(C(F)(F)F)cc1Cl | > 500 | 136 µL/min/mg | > 10 µM | > 500 | – | > 10 µM | – |
| CCCCCS(=O)(=O)NC(=O)Cc1cc(OCCCC)nn1Cc1ccc(Cl)cc1Cl | – | – | – | – | > 10000 nM | – | – |
| CCCCCS(=O)(=O)NC(=O)CCCc1cc(OCCCC)nn1Cc1ccc(Cl)cc1Cl | – | – | – | – | 67 nM | – | – |
| CC(C)Oc1cc(CCC(=O)NS(=O)(=O)c2ccccc2)n(Cc2ccc(Cl)cc2Cl)n1 | – | – | > 10 µM | – | 110 nM | > 10 µM | – |
| CCCCS(=O)(=O)NC(=O)CCc1cc(OC(C)C)nn1Cc1ccc(Cl)cc1Cl | – | 165 µL/min/mg | > 10 µM | – | 40 nM | > 10 µM | – |
| COCCOc1cc(/C=C/C(=O)NS(=O)(=O)CCC(C)C)n(Cc2ccc(C(F)(F)F)cc2Cl)n1 | > 500 | 34 µL/min/mg | > 10 µM | > 500 | 9 nM | > 10 µM | Activity [9]: 47% |
| CCCCCS(=O)(=O)NC(=O)CCc1cc(OCc2ccccc2)nn1Cc1ccc(Cl)cc1Cl | – | 100 µL/min/mg | > 10 µM | – | 14 nM | > 10 µM | – |
| CC(C)Oc1cc(CCC(=O)NS(=O)(=O)C2CCCCC2)n(Cc2ccc(Cl)cc2Cl)n1 | – | – | > 10 µM | – | 150 nM | > 10 µM | – |
| CCCCCS(=O)(=O)NC(=O)CCc1cc(OCc2ccccn2)nn1Cc1ccc(Cl)cc1Cl | – | 224 µL/min/mg | > 10 µM | – | 120 nM | > 10 µM | – |
| CCCCCS(=O)(=O)NC(=O)CCc1cc(OCCCC)nn1Cc1ccc(Cl)cc1Cl | – | – | > 10 µM | – | – | > 10 µM | – |
| CC(C)Oc1cc(CCC(=O)NS(=O)(=O)Cc2ccccc2)n(Cc2ccc(Cl)cc2Cl)n1 | – | 107 µL/min/mg | – | – | 260 nM | – | – |
| CCCCCS(=O)(=O)NC(=O)CCc1cc(OC(C)C)nn1Cc1ccc(Cl)cc1Cl | > 500 | 192 µL/min/mg | – | > 500 | – | – | Activity (Rattus norvegicus [11]): inactive; microsomal CLint at 1 µM [12]: 128 µL/min/mg |
| CCCCCCS(=O)(=O)NC(=O)CCc1cc(OC(C)C)nn1Cc1ccc(Cl)cc1Cl | – | – | > 10 µM | – | 21 nM | > 10 µM | – |
| CCCCCS(=O)(=O)NC(=O)CCCCc1cc(OCCCC)nn1Cc1ccc(Cl)cc1Cl | – | – | – | – | 29 nM | – | – |
| CCCCCS(=O)(=O)NC(=O)/C=C/c1cc(C(C)C)nn1Cc1ccc(Cl)cc1Cl | > 500 | 99 µL/min/mg | > 10 µM | > 500 | 8.2 nM | > 10 µM | – |
| CCCCCS(=O)(=O)NC(=O)c1cc(OCCCC)nn1Cc1ccc(Cl)cc1Cl | – | – | – | – | – | – | EC50 ([4]; cho-k1): Not Active |
| CC(C)Oc1cc(CCC(=O)NS(C)(=O)=O)n(Cc2ccc(Cl)cc2Cl)n1 | – | – | – | – | 450 nM | – | – |

From ChEMBL document CHEMBL1932914, “A new class of non-thiazolidinedione, non-carboxylic-acid-based highly selective peroxisome proliferator-activated receptor (PPAR) γ agonists: design and synthesis of benzylpyrazole acylsulfonamides” (Bioorg Med Chem, 2012)
